Values joined by “and” are separate entries in the source; they are usually repeats but may differ in a detail not shown here. Identical values can stand only once.
Assays:
H. pylori urease (HPU) = target: T1, H. pylori urease (HPU) (Helicobacter pylori, UniProt P69996); test: Urease inhibition test (modified Berthelot method); type: biochemical; conditions: replicates
T1 construct: HPU was prepared as previously described; made in house
Experimental: (§1) HPU was prepared as previously described. The standard urease assay mixture included 150 mM urea in 20 mM HEPES buffer (pH 7.5). After addition of small aliquots of enzyme-containing solution of urease, the assay ran for 20 min. The enzymatic activity was evaluated spectrophotometrically by detecting the ammonia concentration at 595 nm according to the modified Berthelot (phenol-hypochlorite) method. Urease activity was estimated with JBU as a standard, the specific activity of HPU was determined to be 17.0 U/mg. One unit of urease activity was defined as 1 μmol of ammonia released per min at 25°C. The amount of protein was determined by commercial Bradford Protein Assay Kit with BSA as a standard. The amount of ammonia released was decided from a standard curve. The activity of uninhibited urease was defined as the control activity of 100%.
(§2) Reaction mixtures comprising 0.25 mg/mL HPU or JBU and different concentrations of Pal or AHA at the volume ratio of 1:1, were incubated at 37°C in 20 mM HEPES buffer (pH 7.5) in the absence of urea. The reactions were initiated by mixing the urease and the inhibitor. The preincubation mixture was withdrawn at 20 min and immediately transferred into the standard assay mixtures for urease residual activity determination. Inhibition rate (%) was calculated following the formula: I % = (1-activity with inhibitors/activity without inhibitors) × 100%. The IC50 was expressed as the concentration of inhibitor that decreased urease activity by 50% and calculated by plotting the percent of inhibition. The experiments were triply performed.

jack bean urease (JBU) = target: T2, jack bean urease (JBU) (Canavalia ensiformis, UniProt P07374); test: Urease inhibition test (modified Berthelot method); type: biochemical
T2 construct: Urease from jack bean (Canavalia ensiformis, JBU); purchased Sigma-Aldrich (St Louis, MO, USA) type III (catalogue number not given)
T2 sequence (P07374 whole entry, looked up): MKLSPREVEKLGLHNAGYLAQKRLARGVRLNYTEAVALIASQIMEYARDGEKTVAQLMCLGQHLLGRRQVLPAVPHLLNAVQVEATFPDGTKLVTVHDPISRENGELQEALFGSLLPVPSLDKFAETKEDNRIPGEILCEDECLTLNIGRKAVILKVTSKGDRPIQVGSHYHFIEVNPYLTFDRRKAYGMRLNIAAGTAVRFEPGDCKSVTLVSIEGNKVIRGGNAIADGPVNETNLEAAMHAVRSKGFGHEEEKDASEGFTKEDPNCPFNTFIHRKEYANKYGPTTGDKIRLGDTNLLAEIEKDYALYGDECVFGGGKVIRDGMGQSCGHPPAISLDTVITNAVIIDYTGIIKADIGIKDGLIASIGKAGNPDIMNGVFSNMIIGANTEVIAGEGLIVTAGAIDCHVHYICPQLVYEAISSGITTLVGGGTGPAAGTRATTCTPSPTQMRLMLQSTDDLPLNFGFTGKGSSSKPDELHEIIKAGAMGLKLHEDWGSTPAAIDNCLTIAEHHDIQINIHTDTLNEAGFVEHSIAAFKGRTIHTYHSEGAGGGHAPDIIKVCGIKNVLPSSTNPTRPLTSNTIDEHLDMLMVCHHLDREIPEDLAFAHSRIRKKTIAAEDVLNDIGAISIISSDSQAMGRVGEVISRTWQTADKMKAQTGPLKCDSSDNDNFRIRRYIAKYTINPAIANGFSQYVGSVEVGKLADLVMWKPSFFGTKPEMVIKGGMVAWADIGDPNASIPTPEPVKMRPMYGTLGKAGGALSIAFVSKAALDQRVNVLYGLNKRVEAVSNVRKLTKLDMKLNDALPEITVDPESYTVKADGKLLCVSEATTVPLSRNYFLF
Experimental: as §1, §2

T1 sequence (P14916 whole entry): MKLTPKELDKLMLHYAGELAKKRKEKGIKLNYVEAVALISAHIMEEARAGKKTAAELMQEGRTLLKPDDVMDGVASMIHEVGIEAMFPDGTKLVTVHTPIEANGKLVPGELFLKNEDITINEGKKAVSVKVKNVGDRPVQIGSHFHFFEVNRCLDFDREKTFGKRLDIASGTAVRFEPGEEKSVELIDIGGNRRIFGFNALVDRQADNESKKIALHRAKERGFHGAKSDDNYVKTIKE
T1 sequence (P69996 whole entry): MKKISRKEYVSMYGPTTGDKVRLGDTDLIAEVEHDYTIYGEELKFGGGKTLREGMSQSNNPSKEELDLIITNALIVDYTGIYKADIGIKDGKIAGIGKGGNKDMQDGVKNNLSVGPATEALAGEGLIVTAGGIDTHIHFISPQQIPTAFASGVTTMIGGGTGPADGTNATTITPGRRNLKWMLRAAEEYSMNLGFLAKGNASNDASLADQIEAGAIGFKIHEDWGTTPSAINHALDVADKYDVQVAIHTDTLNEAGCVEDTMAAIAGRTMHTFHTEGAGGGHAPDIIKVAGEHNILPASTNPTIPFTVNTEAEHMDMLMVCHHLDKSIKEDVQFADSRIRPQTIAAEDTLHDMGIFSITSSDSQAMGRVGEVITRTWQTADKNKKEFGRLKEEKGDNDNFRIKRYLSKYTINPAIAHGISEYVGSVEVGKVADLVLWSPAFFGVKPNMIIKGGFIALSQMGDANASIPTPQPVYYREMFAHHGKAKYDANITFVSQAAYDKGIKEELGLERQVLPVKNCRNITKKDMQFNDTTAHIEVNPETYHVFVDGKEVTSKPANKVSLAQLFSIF

With COc1cc2c(cc1OC)-c1cc3ccc(OC)c(OC)c3c[n+]1CC2 [Pal, Palmatine] the remaining activity at 29.8125 µM (H. pylori urease (HPU); read-out: Residual activity, Fig 2A HPU, Pal 0.0298125 mM) was 92%, the remaining activity at 59.625 µM (H. pylori urease (HPU); read-out: Residual activity, Fig 2A HPU, Pal 0.059625 mM) was 88% and the remaining activity at 119.25 µM (H. pylori urease (HPU); read-out: Residual activity, Fig 2A HPU, Pal 0.11925 mM) was 77.1%. The remaining activity at 238.5 µM (H. pylori urease (HPU); read-out: Residual activity, Fig 2A HPU, Pal 0.2385 mM) was 66.8%, the remaining activity at 477 µM (H. pylori urease (HPU); read-out: Residual activity, Fig 2A HPU, Pal 0.477 mM) was 49.6% and the remaining activity at 954 µM (H. pylori urease (HPU); read-out: Residual activity, Fig 2A HPU, Pal 0.954 mM) was 24.2%. It also gave a remaining activity at 7.55209 µM (H. pylori urease (HPU); read-out: Residual activity, Fig 2C HPU, head prints Pal 0.00755209 mM) of 94.8%, a remaining activity at 15.1042 µM (H. pylori urease (HPU); read-out: Residual activity, Fig 2C HPU, head prints Pal 0.0151042 mM) of 92.1% and a remaining activity at 60.4167 µM (H. pylori urease (HPU); read-out: Residual activity, Fig 2C HPU, head prints Pal 0.0604167 mM) of 56.1%. It also gave a remaining activity at 120.833 µM (H. pylori urease (HPU); read-out: Residual activity, Fig 2C HPU, head prints Pal 0.120833 mM) of 31%, a remaining activity at 241.667 µM (H. pylori urease (HPU); read-out: Residual activity, Fig 2C HPU, head prints Pal 0.241667 mM) of 23.2% and an IC50 (jack bean urease (JBU)) of 30 µM. The Residual activity (jack bean urease (JBU); Fig 2B JBU, Pal 0.0149062 mM, replicates) was 54.1182% and 57.7693%, the Residual activity (jack bean urease (JBU); Fig 2B JBU, Pal 0.0298125 mM, replicates) was 50.3004% and 49.1799% and the Residual activity (jack bean urease (JBU); Fig 2B JBU, Pal 0.059625 mM, replicates) was 40.1092% and 41.6437%. The Residual activity (jack bean urease (JBU); Fig 2B JBU, Pal 0.11925 mM, replicates) was 37.8863% and 32.26%, the Residual activity (jack bean urease (JBU); Fig 2B JBU, Pal 0.2385 mM, replicates) was 38.5515% and 35.644% and the Residual activity (jack bean urease (JBU); Fig 2B JBU, Pal 0.477 mM, replicates) was 32.5751% and 31.4745%. For the same compound, the Residual activity (jack bean urease (JBU); Fig 2B JBU, Pal 0.954 mM, replicates) was 26.1588% and 18.0767%, the Residual activity (jack bean urease (JBU); Fig 2D JBU, head prints Pal 0.00188802 mM, replicates) was 95.2237% and 88.9105% and the Residual activity (jack bean urease (JBU); Fig 2D JBU, head prints Pal 0.00377605 mM, replicates) was 91.7722% and 82.8804%. The Residual activity (jack bean urease (JBU); Fig 2D JBU, head prints Pal 0.00755209 mM, replicates) was 77.2806% and 78.6217%, the Residual activity (jack bean urease (JBU); Fig 2D JBU, head prints Pal 0.0151042 mM, replicates) was 56.6996% and 59.4273% and the Residual activity (jack bean urease (JBU); Fig 2D JBU, head prints Pal 0.0302084 mM, replicates) was 37.3504% and 39.7719%. The Residual activity (jack bean urease (JBU); Fig 2D JBU, head prints Pal 0.0604167 mM, replicates) was 24.6949% and 22.6887%, the Residual activity (jack bean urease (JBU); Fig 2D JBU, head prints Pal 0.120833 mM, replicates) was 12.8879% and 13.7831% and the Residual activity (jack bean urease (JBU); Fig 2D JBU, head prints Pal 0.241667 mM, replicates) was 10.3312% and 12.3028%. The remaining activity at 14.9062 µM (jack bean urease (JBU); read-out: Residual activity, Fig 2B JBU, Pal 0.0149062 mM, replicates) was 55.1%, the remaining activity at 29.8125 µM (jack bean urease (JBU); read-out: Residual activity, Fig 2B JBU, Pal 0.0298125 mM, replicates) was 49% and the remaining activity at 59.625 µM (jack bean urease (JBU); read-out: Residual activity, Fig 2B JBU, Pal 0.059625 mM, replicates) was 45.6%. The remaining activity at 119.25 µM (jack bean urease (JBU); read-out: Residual activity, Fig 2B JBU, Pal 0.11925 mM, replicates) was 38.6%, the remaining activity at 238.5 µM (jack bean urease (JBU); read-out: Residual activity, Fig 2B JBU, Pal 0.2385 mM, replicates) was 36.2% and the remaining activity at 477 µM (jack bean urease (JBU); read-out: Residual activity, Fig 2B JBU, Pal 0.477 mM, replicates) was 25.7%. For the same compound, the remaining activity at 954 µM (jack bean urease (JBU); read-out: Residual activity, Fig 2B JBU, Pal 0.954 mM, replicates) was 27.1%, the remaining activity at 1.88802 µM (jack bean urease (JBU); read-out: Residual activity, Fig 2D JBU, head prints Pal 0.00188802 mM, replicates) was 94.8% and the remaining activity at 3.77605 µM (jack bean urease (JBU); read-out: Residual activity, Fig 2D JBU, head prints Pal 0.00377605 mM, replicates) was 88.2%. The remaining activity at 7.55209 µM (jack bean urease (JBU); read-out: Residual activity, Fig 2D JBU, head prints Pal 0.00755209 mM, replicates) was 75.2%, the remaining activity at 15.1042 µM (jack bean urease (JBU); read-out: Residual activity, Fig 2D JBU, head prints Pal 0.0151042 mM, replicates) was 55.4% and the remaining activity at 30.2084 µM (jack bean urease (JBU); read-out: Residual activity, Fig 2D JBU, head prints Pal 0.0302084 mM, replicates) was 36.9%. It also gave a remaining activity at 60.4167 µM (jack bean urease (JBU); read-out: Residual activity, Fig 2D JBU, head prints Pal 0.0604167 mM, replicates) of 25.4%, a remaining activity at 120.833 µM (jack bean urease (JBU); read-out: Residual activity, Fig 2D JBU, head prints Pal 0.120833 mM, replicates) of 15.7% and a remaining activity at 241.667 µM (jack bean urease (JBU); read-out: Residual activity, Fig 2D JBU, head prints Pal 0.241667 mM, replicates) of 11.3%.

From article PMC5207512, “Inhibition of Helicobacter pylori and Its Associated Urease by Palmatine: Investigation on the Potential Mechanism” (PLoS ONE, 2017)
